The source of these data is publication PMC9972953, “Thermophilic Carboxylesterases from Hydrothermal Vents of the Volcanic Island of Ischia Active on Synthetic and Biobased Polymers and Mycotoxins” (Applied and Environmental Microbiology, 2023).

Holding throughout (format): biochemical, uncultured Chloroflexota bacterium
Holding throughout (conditions): pH 9.0, 30°C

For assay [1], the system named is T1, IS10.
T1 construct: N-terminal 6xHis tag (pET-46 Ek/LIC), E. coli BL21(DE3); dimer in solution
Kind of assay: spectrophotometric release of α-naphthol, […] nm.

Assay [2] relates to T1, IS10. Kind of assay: spectrophotometric release of p-nitrophenol, […] nm.
Assay [3] deals with T2, IS12.
T2 construct: N-terminal 6xHis tag (pET-46 Ek/LIC), E. coli BL21(DE3); dimer in solution
Kind of assay: spectrophotometric release of p-nitrophenol, […] nm.

The test system of assay [4] is T2, IS12. Kind of assay: spectrophotometric release of α-naphthol, […] nm.

As usually defined, the KM is the substrate concentration at which the rate is half of its maximum. In general, Km refers to the concentration of substrate that gives half-maximal velocity.

With `CCCC(=O)Oc1cccc2ccccc12` [αN-butyrate], in the assay on IS10 [1], the Michaelis-Menten constant (KM) was 120 ± 40 µM.

Regarding `CCCC(=O)Oc1ccc([N+](=O)[O-])cc1` [pNP-butyrate], the Km with IS10 [2] was found to be 60 ± 10 µM; in the assay on IS12 [3] it was 80 ± 10 µM. Take `CCCCCC(=O)Oc1ccc([N+](=O)[O-])cc1` [pNP-hexanoate]: the Km is 40 ± 10 µM in the assay with IS10 [2] and 90 ± 10 µM in the assay with IS12 [3]. In the case of `CCC(=O)Oc1cccc2ccccc12` [αN-propionate], the results for the Michaelis constant (Km) with IS10 [1] and in the assay on IS12 [4] were 60 ± 20 µM and 690 ± 190 µM, respectively. Consider `CC(=O)Oc1ccc([N+](=O)[O-])cc1` [pNP-acetate], for which the Michaelis constant (Km) worked out at 50 ± 10 µM with IS10 [2] and 220 ± 50 µM in the assay with IS12 [3].
